Results as given in ChEMBL document CHEMBL4382233, “Discovery of novel arylethenesulfonyl fluorides as potential candidates against methicillin-resistant of Staphylococcus aureus (MRSA) for overcoming multidrug resistance of bacterial infections” (2019).
Converted amounts (≈) assume the structure as drawn. The source made the active and inactive calls. No cut-off for these calls is given here.

Tests used:
[1] = test system: Staphylococcus haemolyticus; experiment: Antibacterial activity against methicillin-resistant Staphylococcus haemolyticus after overnight incubation by micro broth dilution analysis; format: functional
[2] = test system: Staphylococcus epidermidis; experiment: Antibacterial activity against methicillin-resistant Staphylococcus epidermidis assessed as zone of inhibition at 10 ug/mL after 24 hrs by agar disc diffusion method; format: functional; details: read-out: IZ
Staphylococcus aureus [3] = experiment: Antibiofilm activity against methicillin-resistant Staphylococcus aureus at 2 times MIC after 24 hrs by crystal violet staining-based UV-visible spectrophotometric analysis; format: functional, organism-based
[4] = test system: Staphylococcus haemolyticus; experiment: Antibacterial activity against methicillin-resistant Staphylococcus haemolyticus assessed as zone of inhibition at 10 ug/mL after 24 hrs by agar disc diffusion method; format: functional; details: read-out: IZ
Staphylococcus aureus [5] = experiment: Antibacterial activity against methicillin-resistant Staphylococcus aureus after overnight incubation by micro broth dilution analysis; format: functional
Staphylococcus aureus [6] = experiment: Antibiofilm activity against methicillin-resistant Staphylococcus aureus planktonic biofilm assessed as optical density at 492 nm at MIC after 24 hrs by crystal violet staining-based UV-visible spectrophotometric analysis; format: functional
Staphylococcus aureus [7] = experiment: Antibacterial activity against methicillin-resistant Staphylococcus aureus assessed as zone of inhibition at 10 ug/mL after 24 hrs by agar disc diffusion method; format: functional; details: read-out: IZ
[8] = test system: Staphylococcus epidermidis; experiment: Antibacterial activity against methicillin-resistant Staphylococcus epidermidis after overnight incubation by micro broth dilution analysis; format: functional
[9] = test system: Staphylococcus haemolyticus; experiment: Antibacterial activity against methicillin-resistant Staphylococcus haemolyticus assessed as zone of inhibition at 50 ug/mL after 24 hrs by agar disc diffusion method; format: functional; details: read-out: IZ
[10] = test system: Staphylococcus epidermidis; experiment: Antibacterial activity against methicillin-resistant Staphylococcus epidermidis assessed as zone of inhibition at 200 ng/mL after 24 hrs by agar disc diffusion method; format: functional; details: read-out: IZ
Staphylococcus aureus [11] = experiment: Induction of pore formation in methicillin-resistant Staphylococcus aureus cell membrane assessed as increase in ferricyanide mediated cellular leakage after 2 hrs by DCPIP dye-based cyclic voltammetric analysis; format: functional, organism-based
[12] = test system: Staphylococcus haemolyticus; experiment: Antibacterial activity against methicillin-resistant Staphylococcus haemolyticus assessed as zone of inhibition at 400 ng/mL after 24 hrs by agar disc diffusion method; format: functional; details: read-out: IZ
Staphylococcus aureus [13] = experiment: Antibiofilm activity against methicillin-resistant Staphylococcus aureus assessed as optical density at 492 nm at 1 to 2 times MIC after 24 hrs by crystal violet staining-based UV-visible spectrophotometric analysis; format: functional
Staphylococcus aureus [14] = experiment: Antibacterial activity against methicillin-resistant Staphylococcus aureus assessed as zone of inhibition at 50 ug/mL after 24 hrs by agar disc diffusion method; format: functional; details: read-out: IZ
[15] = test system: Staphylococcus epidermidis; experiment: Antibacterial activity against methicillin-resistant Staphylococcus epidermidis assessed as zone of inhibition at 400 ng/mL after 24 hrs by agar disc diffusion method; format: functional; details: read-out: IZ
Staphylococcus aureus [16] = experiment: Induction of pore formation in methicillin-resistant Staphylococcus aureus cell membrane assessed as increase in ferricyanide mediated potassium efflux after 2 hrs by DCPIP dye-based cyclic voltammetric analysis; format: functional, organism-based
Staphylococcus aureus [17] = experiment: Antibacterial activity against methicillin-resistant Staphylococcus aureus assessed as zone of inhibition at 200 ng/mL after 24 hrs by agar disc diffusion method; format: functional; details: read-out: IZ
Staphylococcus aureus [18] = experiment: Induction of pore formation in methicillin-resistant Staphylococcus aureus cell membrane assessed as increase in ferricyanide mediated DNA damage after 2 hrs by DCPIP dye-based cyclic voltammetric analysis; format: functional, organism-based
[19] = test system: Staphylococcus epidermidis; experiment: Antibacterial activity against methicillin-resistant Staphylococcus epidermidis assessed as zone of inhibition at 20 ug/mL after 24 hrs by agar disc diffusion method; format: functional; details: read-out: IZ
Staphylococcus aureus [20] = experiment: Induction of cellular content release in methicillin-resistant Staphylococcus aureus assessed as DNA content by measuring optical density at 260 nm at MIC after 240 mins by UV-visible spectrophotometric analysis; format: functional
Staphylococcus aureus [21] = experiment: Antibacterial activity against methicillin-resistant Staphylococcus aureus assessed as zone of inhibition at 400 ng/mL after 24 hrs by agar disc diffusion method; format: functional; details: read-out: IZ
[22] = test system: Staphylococcus epidermidis; experiment: Antibacterial activity against methicillin-resistant Staphylococcus epidermidis assessed as zone of inhibition at 800 ng/mL after 24 hrs by agar disc diffusion method; format: functional; details: read-out: IZ
Staphylococcus aureus [23] = experiment: Antibiofilm activity against methicillin-resistant Staphylococcus aureus at MIC after 24 hrs by crystal violet staining-based UV-visible spectrophotometric analysis; format: functional, organism-based
Staphylococcus aureus [24] = experiment: Antibacterial activity against methicillin-resistant Staphylococcus aureus assessed as zone of inhibition at 800 ng/mL after 24 hrs by agar disc diffusion method; format: functional; details: read-out: IZ
[25] = test system: Staphylococcus haemolyticus; experiment: Antibacterial activity against methicillin-resistant Staphylococcus haemolyticus assessed as zone of inhibition at 200 ng/mL after 24 hrs by agar disc diffusion method; format: functional; details: read-out: IZ
[26] = test system: Staphylococcus haemolyticus; experiment: Antibacterial activity against methicillin-resistant Staphylococcus haemolyticus assessed as zone of inhibition at 800 ng/mL after 24 hrs by agar disc diffusion method; format: functional; details: read-out: IZ
[27] = test system: Staphylococcus epidermidis; experiment: Antibacterial activity against methicillin-resistant Staphylococcus epidermidis assessed as zone of inhibition at 30 ug/mL after 24 hrs by agar disc diffusion method; format: functional; details: read-out: IZ
Staphylococcus aureus [28] = experiment: Antibacterial activity against methicillin-resistant Staphylococcus aureus assessed as zone of inhibition at 30 ug/mL after 24 hrs by agar disc diffusion method; format: functional; details: read-out: IZ
[29] = test system: Staphylococcus haemolyticus; experiment: Antibacterial activity against methicillin-resistant Staphylococcus haemolyticus assessed as zone of inhibition at 30 ug/mL after 24 hrs by agar disc diffusion method; format: functional; details: read-out: IZ
Staphylococcus aureus [30] = experiment: Antibiofilm activity against methicillin-resistant Staphylococcus aureus assessed as reduction in adherence of planktonic bacteria at MIC up to 24 hrs by SEM analysis; format: functional, organism-based
Staphylococcus aureus [31] = experiment: Antibacterial activity against methicillin-resistant Staphylococcus aureus at MIC by SEM analysis; format: functional, organism-based; details: TDE = time-dependent effect
Staphylococcus aureus [32] = experiment: Induction of membrane disruption in methicillin-resistant Staphylococcus aureus at MIC up to 24 hrs by SEM analysis; format: functional, organism-based

Row | SMILES | MIC99 [1] | Activity (Staphylococcus aureus [3]) | MIC99 (Staphylococcus aureus [5]) | OD (Staphylococcus aureus [6]) | MIC99 [8] | zone of inhibition at 50 µg/mL [9] | zone of inhibition at 0.2 µg/mL [10] | Activity (Staphylococcus aureus [11]) | zone of inhibition at 0.4 µg/mL [12] | OD (Staphylococcus aureus [13]) | zone of inhibition at 50 µg/mL (Staphylococcus aureus [14]) | zone of inhibition at 0.4 µg/mL [15] | Activity (Staphylococcus aureus [16]) | zone of inhibition at 0.2 µg/mL (Staphylococcus aureus [17]) | Activity (Staphylococcus aureus [18]) | zone of inhibition at 20 µg/mL [19] | OD (Staphylococcus aureus [20]) | zone of inhibition at 0.4 µg/mL (Staphylococcus aureus [21]) | Activity (Staphylococcus aureus [23]) | zone of inhibition at 0.8 µg/mL (Staphylococcus aureus [24]) | further results
1 | CC1(C)S[C@@H]2[C@H](NC(=O)[C@H](N)c3ccccc3)C(=O)N2[C@H]1C(=O)O [AMPICILLIN] | 10.1 µg/mL (≈ 28.9 µM) | Active | 0.12 µg/mL (≈ 0.343 µM) | 0.745 | 7.15 µg/mL (≈ 20.5 µM) | – | – | – | – | – | – | – | – | – | – | – | – | – | – | – | zone of inhibition at 10 µg/mL [2]: 11.7 mm; zone of inhibition at 10 µg/mL [4]: 7.6 mm; zone of inhibition at 10 µg/mL (Staphylococcus aureus [7]): 9.95 mm
2 | N#Cc1ccc(/C=C/S(=O)(=O)F)cc1 | 0.847 µg/mL (≈ 4.01 µM) | – | 0.84 µg/mL (≈ 3.98 µM) | 0.685 | 0.831 µg/mL (≈ 3.93 µM) | 7.2 mm | 5.2 mm | Active | 5.1 mm | 0.68 | 11.4 mm | 6.3 mm | Active | 6.1 mm | Active | 7.5 mm | 1.42 | 7.3 mm | Active | 8.5 mm | zone of inhibition at 0.8 µg/mL [22]: 7.6 mm; zone of inhibition at 0.2 µg/mL [25]: 4.2 mm; zone of inhibition at 0.8 µg/mL [26]: 6.2 mm
3 | CS(=O)(=O)c1cccc(/C=C/S(=O)(=O)F)c1 | 39.1 µg/mL (≈ 148 µM) | – | 0.81 µg/mL (≈ 3.06 µM) | 0.612 | 44.2 µg/mL (≈ 167 µM) | 6.3 mm | – | Active | – | 0.61 | 10 mm | – | Active | 6.4 mm | Active | 6.2 mm | 1.86 | 7.1 mm | Active | 10.2 mm | –
4 | O=S(=O)(F)/C=C/c1ccc(Cl)cc1 | 0.846 µg/mL (≈ 3.83 µM) | – | 0.818 µg/mL (≈ 3.71 µM) | 0.66 | 0.83 µg/mL (≈ 3.76 µM) | 7.2 mm | 5.2 mm | Active | 5.1 mm | 0.66 | 8.2 mm | 7.2 mm | Active | 6.3 mm | Active | 10.3 mm | 1.28 | 8.2 mm | Active | 10 mm | zone of inhibition at 0.8 µg/mL [22]: 8.4 mm; zone of inhibition at 0.2 µg/mL [25]: 4.1 mm; zone of inhibition at 0.8 µg/mL [26]: 71 mm
5 | CCn1cc(C(=O)O)c(=O)c2cc(F)c(N3CCNCC3)cc21 [NORFLOXACIN] | 0.58 µg/mL (≈ 1.82 µM) | Active | 0.61 µg/mL (≈ 1.91 µM) | 0.695 | 0.73 µg/mL (≈ 2.29 µM) | – | – | – | – | – | – | – | – | – | – | – | – | – | – | – | zone of inhibition at 30 µg/mL [27]: 9.07 mm; zone of inhibition at 30 µg/mL (Staphylococcus aureus [28]): 10 mm; zone of inhibition at 30 µg/mL [29]: 12.7 mm
6 | O=S(=O)(F)/C=C/c1cc(Cl)nc(Cl)c1 | 0.842 µg/mL (≈ 3.29 µM) | – | 0.811 µg/mL (≈ 3.17 µM) | 0.725 | 0.84 µg/mL (≈ 3.28 µM) | 7.2 mm | 5.4 mm | Active | 6.5 mm | 0.72 | 12.1 mm | 6.3 mm | Active | 7.1 mm | Active | 7.1 mm | 1.85 | 9.2 mm | Active | 11.4 mm | Activity (Staphylococcus aureus [30]): Active; zone of inhibition at 0.8 µg/mL [22]: 7.2 mm; Activity (Staphylococcus aureus [31]): Tde; Activity (Staphylococcus aureus [32]): Active; zone of inhibition at 0.2 µg/mL [25]: 5.2 mm; zone of inhibition at 0.8 µg/mL [26]: 7.4 mm
7 | NC[C@H]1O[C@H](O[C@H]2[C@H](O)[C@@H](O[C@H]3O[C@H](CO)[C@@H](O)[C@H](N)[C@H]3O)[C@H](N)C[C@@H]2N)[C@H](O)[C@@H](O)[C@@H]1O [KANAMYCIN] | 21.2 µg/mL (≈ 43.7 µM) | Active | 9.12 µg/mL (≈ 18.8 µM) | 0.715 | 30.1 µg/mL (≈ 62.2 µM) | – | – | – | – | – | – | – | – | – | – | – | – | – | – | – | zone of inhibition at 30 µg/mL [27]: 8.3 mm; zone of inhibition at 30 µg/mL (Staphylococcus aureus [28]): 12 mm; zone of inhibition at 30 µg/mL [29]: 4.81 mm
